This is an account of results in patent US6569878B1, “Substituted 4-amino-thiazol-2-yl compounds as cyclin-dependent kinase inhibitors” (Agouron Pharmaceuticals Inc., priority 1997, dated 2003).

Assay [1] addresses T1, complex of human CDK4 and cyclin D3 (Homo sapiens, UniProt P11802).
T1 construct: made in house; host or cells: insect cells, co-infected with baculovirus
In words: Inhibition of CDK4/cyclin D retinoblastoma kinase activity (D-type cyclin is D3). The conditions noted are these: superscript a: D-type cyclin is D3; apparent Ki; read-out: Ki CDK 4/D. It counts as biochemical. The procedure, abridged:
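Radiometric assay: [32P]- or [33P]ATP phosphate incorporation into Rb substrate at 30°C for 20 min, stopped with EDTA, filter-captured and phosphorimaged.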

The target of assay [2] is T2, human CDK1 (cdc2) and cyclin B (Homo sapiens, UniProt P06493).
T2 construct: purchased New England Biolabs (Beverly Mass.)
In words: Inhibition of CDK1(cdc2)/cyclin B histone H1 kinase activity. It counts as biochemical. As to conditions: read-out: Ki CDK 1/B. As to the method:
Cyclin-dependent kinase activity was measured by quantifying the enzyme-catalyzed, time-dependent incorporation of radioactive phosphate from [^32P]ATP or [^33P]ATP into a protein substrate. Unless noted otherwise, assays were performed in 96-well plates in a total volume of 50 μL, in the presence of 10 mM HEPES (N-[2-hydroxyethyl]piperazine-N′-[2-ethanesulfonic acid]) (pH 7.4), 10 mM MgCl2, 25 μM adenosine triphosphate (ATP), 1 mg/mL ovalbumin, 5 μg/mL leupeptin, 1 mM dithiothreitol, 10 mM β-glycerophosphate, 0.1 mM sodium vanadate, 1 mM sodium fluoride, 2.5 mM ethylene glycol-bis(β-aminoethyl ether)-N,N,N′N′-tetraacetic acid (EGTA), 2% (v/v) dimethylsulfoxide, and 0.03-0.4 μCi [^32/33P]ATP per reaction. Reactions were initiated with enzyme, incubated at 30° C., and terminated after 20 minutes by the addition of ethylenediaminetetraacetic acid (EDTA) to 250 mM. The phosphorylated substrate was then captured on a nitrocellulose or phosphocellulose membrane using a 96-well filtration manifold, and unincorporated radioactivity was removed by repeated washing with 0.85% phosphoric acid. Radioactivity was quantified by exposing the dried membranes to a phosphorimager.
Apparent Ki values were measured by assaying enzyme activity in the presence of different inhibitor compound concentrations and subtracting the background radioactivity measured in the absence of enzyme. The kinetic parameters (kcat, Km for ATP) were measured for each enzyme under the usual assay conditions by determining the dependence of initial rates on ATP concentration. Inhibition data were fit to an equation for competitive inhibition using Kaleidagraph (Synergy Software), or were fit to an equation for competitive tight-binding inhibition using the software KineTic (BioKin, Ltd.).
The complex of human CDK1 (cdc2) and cyclin B was purchased from New England Biolabs (Beverly Mass.). Alternatively, a CDK1/glutathione-S-transferase-cyclin B1 complex was purified using glutathione affinity chromatography from insect cells that had been co-infected with the corresponding baculovirus expression vectors. The assay was executed as described above at 30° C. using 2.5 units of cdc2/cyclin B, 10 μg Histone H1 protein, and 0.1-0.3 μCi [^32/33P]ATP per assay. Phosphorylated histone substrate was captured by microfiltration on a phosphocellulose P81 membrane and quantified using a phosphorimager as described above. Ki values were measured using the described curve-fitting programs.

The target of a further assay is T3, CDK2/cyclin A (Homo sapiens, UniProt P24941).
T3 construct: made in house; host or cells: CDK2: insect cells (baculovirus); cyclin A: E. coli, then limited proteolysis
In words: Inhibition of CDK2/cyclin A retinoblastoma kinase activity. It counts as biochemical. As to conditions: read-out: Ki CDK 2/A. The essentials:
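Baculovirus-expressed CDK2 with excess proteolyzed cyclin A (or purified complex), 150 nM or 5 nM, phosphorylating an Rb fragment with 25 μM [32/33P]ATP, pH 7.4, 30° C, 20 min. Filter-captured radioactivity by phosphorimager; apparent Ki from fits to competitive or tight-binding competitive inhibition using measured ATP Km.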

For the next assay, the system named is Saos-2. In words: Inhibition of cell growth, MTT assay, Saos-2. As to conditions: Homo sapiens; Saos-2, MTT assay. Format: cell-based. The essentials:
(§1)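 Cells rested 4 h after plating, then exposed to graded compound concentrations in 0.5% (v/v) DMSO for four to six days (cell-type dependent) at 37° C, 5% CO2. Viability was read by MTT (0.2 mg/mL final, 4 h at 37° C), with DMSO-solubilized formazan measured at 540 nm.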

In the next assay the test system is HCT116. In words: Inhibition of cell growth, MTT assay, HCT116. It counts as cell-based, human. As to conditions: Homo sapiens, HCT-116. The procedure, abridged:
as §1
On the technique in general: Tetrazolium assays rely on reduction of a dye to a coloured formazan, in cell work by metabolically active cells.

The test system of another assay is U2-OS. In words: Inhibition of cell growth, MTT assay, U2-OS. The conditions noted are these: Homo sapiens, U2OS. Format: cell-based. The essentials: as §1

SMILES strings stand for the structures. Structures can show the parent of a compound that is named as a salt.

Usually IC50 stands for the concentration that gives 50% inhibition. Low values mean greater potency in that assay, high ones weaker potency in that assay. A word on the IC90: it is the point of the concentration-response curve where the effect stands at 90%. Low readings indicate an effect from little substance, high ones a need for much substance.

T1 sequence (P11802 whole entry): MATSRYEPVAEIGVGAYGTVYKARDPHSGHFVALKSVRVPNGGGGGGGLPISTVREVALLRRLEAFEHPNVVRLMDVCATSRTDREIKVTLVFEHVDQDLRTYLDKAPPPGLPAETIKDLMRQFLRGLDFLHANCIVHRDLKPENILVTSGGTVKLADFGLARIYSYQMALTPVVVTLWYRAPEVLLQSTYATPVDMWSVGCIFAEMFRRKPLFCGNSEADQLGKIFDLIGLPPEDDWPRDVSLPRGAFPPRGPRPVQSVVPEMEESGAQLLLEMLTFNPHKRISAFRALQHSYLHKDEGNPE
T1 sequence (P30281 whole entry partner): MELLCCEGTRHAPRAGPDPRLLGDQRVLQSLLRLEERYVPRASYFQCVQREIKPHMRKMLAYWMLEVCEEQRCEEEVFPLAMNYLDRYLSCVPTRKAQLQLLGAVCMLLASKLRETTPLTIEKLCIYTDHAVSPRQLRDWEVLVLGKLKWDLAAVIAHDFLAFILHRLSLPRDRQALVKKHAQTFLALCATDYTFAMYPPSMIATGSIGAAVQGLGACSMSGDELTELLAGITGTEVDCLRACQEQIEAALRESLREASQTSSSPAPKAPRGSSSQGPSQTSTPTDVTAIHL
T2 sequence (P06493 whole entry): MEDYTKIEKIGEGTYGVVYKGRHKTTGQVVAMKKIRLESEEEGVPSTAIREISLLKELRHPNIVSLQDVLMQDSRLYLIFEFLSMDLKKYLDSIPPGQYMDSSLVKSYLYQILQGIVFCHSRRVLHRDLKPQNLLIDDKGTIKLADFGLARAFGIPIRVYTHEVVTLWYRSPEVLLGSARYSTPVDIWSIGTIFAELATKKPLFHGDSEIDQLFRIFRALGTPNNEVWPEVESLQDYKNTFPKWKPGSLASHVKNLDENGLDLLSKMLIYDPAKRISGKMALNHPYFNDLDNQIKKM
T2 sequence (P14635 whole entry partner): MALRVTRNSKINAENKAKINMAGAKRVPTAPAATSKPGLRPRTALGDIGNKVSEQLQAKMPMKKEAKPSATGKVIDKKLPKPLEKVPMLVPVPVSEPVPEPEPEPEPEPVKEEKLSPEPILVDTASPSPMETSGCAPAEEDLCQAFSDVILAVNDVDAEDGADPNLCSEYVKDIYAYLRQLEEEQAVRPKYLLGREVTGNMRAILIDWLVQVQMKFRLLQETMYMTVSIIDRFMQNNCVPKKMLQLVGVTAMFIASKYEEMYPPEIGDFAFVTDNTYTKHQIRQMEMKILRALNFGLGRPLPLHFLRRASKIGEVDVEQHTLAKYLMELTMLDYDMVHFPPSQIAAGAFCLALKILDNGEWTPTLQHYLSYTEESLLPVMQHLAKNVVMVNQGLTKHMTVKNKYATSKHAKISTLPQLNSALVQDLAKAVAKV

With `Nc1nc(Nc2ccc(S(N)(=O)=O)cc2)sc1C(=O)c1c(F)cccc1C(F)(F)F` [C(99), 4-[4-Amino-5-(2-fluoro-6-trifluoromethyl-benzoyl)-thiazol-2-ylamino]-benzenesulfonamide], the Ki in assay [1] is 16.4 nM; in assay [2], 40 nM; at CDK2/cyclin A it was 39.5 nM. In addition, the half-inhibitory concentration (IC50) in the assay with Saos-2 stood at 1100 nM; in the assay on HCT116 it was 880 nM; in the assay on U2-OS, 4000 nM. Further, the concentration for an effect of 90% (IC90) in the assay with Saos-2 is 2900 nM; in the assay on HCT116, 2700 nM; with U2-OS, 8000 nM.
As to `NC(=O)c1ccc(Nc2nc(N)c(C(=O)c3c(F)cccc3F)s2)cc1` [C(102), 4-[4-Amino-5-(2,6-difluoro-benzoyl)-thiazol-2-ylamino]-benzamide], the Ki is 21 nM in assay [1], 17 nM in assay [2] and 49 nM at CDK2/cyclin A. The concentration for half-maximal inhibition (IC50) was 880 nM in the assay with Saos-2, 1100 nM in the assay on HCT116 and 3100 nM in the assay on U2-OS. The IC90 with Saos-2 was determined as 2200 nM; in the assay on HCT116, 2400 nM; in the assay on U2-OS, 5400 nM.
Take `CNS(=O)(=O)c1ccc(Nc2nc(N)c(C(=O)c3sccc3C)s2)cc1` [C(114), 4-[4-Amino-5-(3-methyl-thiophene-2-carbonyl)-thiazol-2-ylamino]-N-methyl-benzenesulfonamide]: the figures for the Ki (in assay [1]; in assay [2]; on CDK2/cyclin A) were 21 nM, 28 nM and 8.5 nM, respectively. Moreover, the IC50 in the assay on Saos-2 was 1300 nM; with HCT116, 1100 nM; in the assay with U2-OS, 3000 nM. Moreover, the figures for the 90% effect concentration (IC90) in the assay with Saos-2, with HCT116 and with U2-OS were 4800 nM, 2800 nM and 5200 nM, respectively.
Take `CN1CCN(c2ccc(Nc3nc(N)c(C(=O)c4c(F)cccc4F)s3)cc2)CC1=O` [C(118), 4-{4-[4-Amino-5-(2,6-difluoro-benzoyl)-thiazol-2-ylamino]-phenyl}-1-methyl-piperazin-2-one]: the results for the Ki (in assay [1]; in assay [2]; on CDK2/cyclin A) were 10.3 nM, 97 nM and 191 nM, respectively. The IC50 with Saos-2 was 940 nM; in the assay on HCT116, 640 nM; with U2-OS, 2400 nM. Also, the values for the IC90 with Saos-2, in the assay on HCT116 and in the assay with U2-OS were 1500 nM, 1400 nM and 5000 nM, respectively.
Take `Nc1nc(Nc2ccc(N3CCSCC3)cc2)sc1C(=O)c1c(F)cccc1F` [C(119), [4-Amino-2-(4-thiomorpholin-4-yl-phenylamino)-thiazol-5-yl]-(2,6-difluoro-phenyl)-methanone]: the results for the Ki (in assay [1]; in assay [2]; on CDK2/cyclin A) were 24 nM, 247 nM and 86 nM, respectively. Moreover, the half-maximal inhibitory concentration (IC50) in the assay with Saos-2 worked out at 7000 nM; in the assay with HCT116, 4000 nM; with U2-OS it was 7800 nM. Also, the IC90 in the assay on Saos-2 turned out to be 13000 nM; in the assay on HCT116, 7000 nM; with U2-OS, 12000 nM.
Turning to `Nc1nc(Nc2ccc(N3CCNC(=O)C3)cc2)sc1C(=O)c1c(F)cccc1F` [C(120), 4-{4-[4-Amino-5-(2,6-difluoro-benzoyl)-thiazol-2-ylamino]-phenyl}-piperazin-2-one], the Ki in assay [1] stood at 10.9 nM; in assay [2] it was 62 nM; at CDK2/cyclin A it was 80 nM. For the same molecule, the IC50 in the assay with Saos-2 was 2600 nM; in the assay on HCT116 it was 3500 nM; in the assay on U2-OS, 5700 nM. The values for the IC90 in the assay with Saos-2, in the assay with HCT116 and in the assay with U2-OS were 5200 nM, 6000 nM and 11000 nM, respectively.
With `Nc1ccc(Cl)c(C(=O)c2sc(Nc3ccc(N4CCNCC4)cc3)nc2N)c1Cl` [H(2), (3-Amino-2,6-dichloro-phenyl)-[4-amino-2-(4-piperazin-1-yl-phenylamino)-thiazol-5-yl]-methanone Trihydrochloride], the Ki in assay [1] is 3.6 nM; in assay [2], 361 nM; at CDK2/cyclin A, 474 nM. For the same molecule, the IC50 in the assay with Saos-2 was determined as 13000 nM; in the assay on HCT116, 15000 nM; with U2-OS it was 16000 nM. Further, the values for the 90% effect concentration (IC90) with Saos-2, in the assay with HCT116 and in the assay on U2-OS were 22000 nM, 25000 nM and 21000 nM, respectively.
